We go through three molecules from patent US20100158866A1, “PREDICTION OF HCV TREATMENT RESPONSE” (priority 2008, published 2010).

Data set [1] in a line: Phase 2A clinical trial of RO4588161: premature withdrawal for safety reasons. The data set is classed as in vivo, human. From the text:
(§1) This was a phase 2A, multi-center, randomized, double-blinded (RO4588161 and ribavirin were double-blinded and Pegasys was open labeled), active-controlled, with a parallel-group study which is ongoing. A screening period (time from the first screening assessment to the first administration of test drug) of 35 days preceded the treatment portion of the trial (FIG. 1). The HCV genotype and HCV RNA titer of each patient was confirmed during the screening period and only treatment-naïve patients with HCV genotype-1 and HCV RNA titer […] were eligible for enrollment.
One hundred and seven male and female patients between 18 and 66 years of age were enrolled into the study. Patients were randomized into four treatment groups: • Group A/Dual 1500 [RO4588161 1500 mg oral, twice daily+Pegasys 180 μg subcutaneous, once weeky] for 4 weeks-21 patients, • Group B/Dual 3000 [RO4588161 3000 mg oral, twice daily+Pegasys 180 μg subcutaneous, once weekly] for 4 weeks-34 patients, • Group C/Triple 1500 [RO4588161 1500 mg oral, twice daily+Pegasys 180 μg subcutaneous, once weekly+ribavirin 1000 mg (<75 kg) or 1200 mg […] oral daily] for 4 weeks-31 patients or • Group D/standard of care (SOC) [Pegasys 180 μg subcutaneous, once weekly+ribavirin 1000 mg (<75 kg) or 1200 mg (≧75 kg) oral daily] for 4 weeks-21 patients […]

For data set [2], the system named is HCV. The settings on record: cited from earlier work.
For data set [3] the following is noted: human, in vivo; cited from earlier work.
For data set [4], the system named is HCV genotype 1. Briefly: Phase II clinical trial of RO5024048 with Pegasys and ribavirin: plasma HCV RNA. The data set is classed as in vivo, human. The text has this: Twenty-five (25) patients per Cohort of RO5024048 were enrolled. Twenty (20) patients per cohort received RO5024048 in combination with standard of care (SOC) and five (5) patients per cohort were randomized to receive SOC with a RO5024048 placebo. Patients were screened up to 56 days prior to enrollment. On Day −1, patients visited the clinic for pre-dose assessments. On Day 1, patients received an oral dose of study drug RO5024048 or placebo and Pegasys/ribovarin in the morning with a light meal and at least 240 mL of water.
A majority of dosing occurred on an outpatient basis. Periodically, patients returned to the clinic for study assessments. Early morning on Days 7, 14, 21, and 28, patients were asked to report to the clinic after an overnight fast. Patients received their RO5024048/placebo in combination with Pegasys and Ribovarin with a light meal and 240 mL of water in the morning in the clinic. Patients were followed through Day 56 (28 days after dosing is completed).
After completing four weeks of the combination-dosing regimen followed by at least 4 weeks of SOC dosing (RO5024048 washout), all patients were eligible to receive up to 40 weeks, depending upon genotype, of open label standard of care (SOC) dosing with Pegasys plus ribavirin. Genotype 2 or 3 subjects enrolling in Cohort 4 will receive a total of 24 weeks of Pegasys plus ribovarin. An overview of the study design is outlined in Table 1.

Data set [5] has as its system HCV genotype 1. Briefly: Phase 2A clinical trial of RO4588161 with Pegasys with or without ribavirin: HCV RNA viral load and viral response (Roche COBAS TaqMan HCV Test). The data set is classed as in vivo, human. The settings on record: for mean change in viral concentrations (HCV RNA) from baseline at week 4: 4 weeks.
Excerpt: as §1
One hundred and seven male and female patients between 18 and 66 years of age were enrolled into the study. Patients were randomized into four treatment groups: • Group A/Dual 1500 [RO4588161 1500 mg oral, twice daily+Pegasys 180 μg subcutaneous, once weeky] for 4 weeks-21 patients, • Group B/Dual 3000 [RO4588161 3000 mg oral, twice daily+Pegasys 180 μg subcutaneous, once weekly] for 4 weeks-34 patients, • Group C/Triple 1500 [RO4588161 1500 mg oral, twice daily+Pegasys 180 μg subcutaneous, once weekly+ribavirin 1000 mg (<75 kg) or 1200 mg […] oral daily] for 4 weeks-31 patients or • Group D/standard of care (SOC) [Pegasys 180 μg subcutaneous, once weekly+ribavirin 1000 mg (<75 kg) or 1200 mg (≧75 kg) oral daily] for 4 weeks-21 patients
Patients meeting all eligibility criteria were randomized to receive RO4588161 in combination with Pegasys with or without ribavirin for 4 weeks or to SOC.
All patients who received at least one dose of study medication would continue to receive open label Pegasys 180 μg sc qw and ribavirin 1000 mg (<75 kg) or 1200 mg (≧75 kg) po qd to complete a total treatment period of 48 weeks.
Randomization was stratified by the PK subcohort (sparse PK versus intensive PK) in a 2:3:3:2 ratio into the following treatment groups (Group A/Dual 1500˜20, Group B/Dual 3000˜30, Group C/Triple 1500˜30, Group D/SOC˜20).
All patients were to have a safety follow up visit at week 8, 4 weeks after the last dose of the experimental drug combination. Patients were to have this 4 week safety follow up visit during their treatment with the standard of care therapy. Patients who have completed a full 48-week course of therapy were followed for 24 weeks post treatment completion.
Pharmacodynamic analysis included the assessment of serum viral load, and viral response at individual clinical visits and an assessment of antiviral resistance development with RO4588161 given in combination with Pegasys with or without ribavirin in treatment naïve patients with chronic HCV genotype 1 virus infection. Viral response was defined as the percentage of patients with undetectable HCV RNA as measured by the Roche COBAS TaqMan HCV Test (<15 IU/mL). Pharmacodynamic data were presented by listings, summary statistics (including means, medians, standard errors, confidence intervals for means, ranges, coefficients of variation, proportions of patients with response and confidence intervals for proportions) and plots of means over time.
(Quantitative PCR measures a nucleic acid by following its amplification.)

The structures appear in SMILES notation.

As to `NC(=O)c1ncn([C@@H]2O[C@H](CO)[C@@H](O)[C@H]2O)n1` [ribavirin, 1-((2R,3R,4S,5R)-3,4-Dihydroxy-5-hydroxymethyl-tetrahydro-furan-2-yl)-1H-[1,2,4]triazole-3-carboxylic acid amide], the “patients who prematurely withdrew for safety reasons from the drug” value in data set [1] (both, human, in vivo, 4 weeks) is listed as 5 patients. The “patients in whom serum amino transferase levels are reduced to normal” value in data set [2] (monotherapy) is 40 % of patients. The “effect on serum levels of HCV-RNA” value in data set [2] (ribavirin monotherapy) is listed as “does not lower”. Also, in data set [3], the “patients with hemolytic anemia requiring dose reduction or discontinuation of ribavirin therapy” value was 10-20 % of patients.

Consider `CC(C)C(=O)OC[C@H]1O[C@@H](n2ccc(N)nc2=O)[C@](C)(F)[C@@H]1OC(=O)C(C)C` [RO5024048, Isobutyric acid (2R,3R,4R,5R)-5-(4-amino-2-oxo-2H-pyrimidin-1-yl)-4-fluoro-3-isobutyryloxy-4-methyl-tetrahydro-furan-2-ylmethyl ester], for which, in data set [4] (1500 mg RO5024048 + Pegasys + ribavirin, patients not undetectable until day 17 (FIG. 4) or day 28 (FIG. 5)), the “whether HCV RNA could be detected at Week 8” value was “mixed”. In addition, the “HCV RNA status on day 56 (Week 8)” value in data set [4] (1500 mg RO5024048 + Pegasys + ribavirin, patients with undetectable HCV RNA at 14 days of treatment (FIG. 3)) is on record as “all HCV RNA negative”. Besides, the “decreases in plasma viral load” value in data set [4] (four-week treatment, 1500 mg RO5024048 twice daily with SOC dosing of Pegasys and ribavirin, compared with other dose levels) is given as “most notable decreases”.

For the molecule `CC(C)C(=O)OC[C@@]1(N=[N+]=[N-])O[C@@H](n2ccc(N)nc2=O)[C@H](OC(=O)C(C)C)[C@@H]1OC(=O)C(C)C` [RO4588161, Isobutyric acid (2R,3S,4R,5R)-5-(4-amino-2-oxo-2H-pyrimidin-1-yl)-2-azido-3,4-bis-isobutyryloxy-tetrahydro-furan-2-ylmethyl ester], in data set [1] (among the 104 evaluable patients), the “patients who prematurely withdrew for safety reasons from the drug” value is on record as 43 patients. Besides, the “mean change in viral concentrations (HCV RNA) from baseline at week 4” value in data set [5] (Dual 1500: RO4588161 1500 mg oral twice daily + Pegasys 180 μg sc once weekly) is −3.6 log10 IU/mL; in data set [5] (Triple 1500: RO4588161 1500 mg oral twice daily + Pegasys 180 μg sc once weekly + ribavirin 1000/1200 mg oral daily) it was −5.2 log10 IU/mL. In addition, the “difference in mean change in viral concentrations” value worked out at 0.9 log10 IU/mL in data set [5] (Dual 3000 vs Dual 1500, week 4, printed as 'minus 0.9'); 1.6 log10 IU/mL in data set [5] (Triple 1500 vs Dual 1500, week 4, printed as 'minus 1.6'); 2.8 log10 IU/mL in data set [5] (Triple 1500 vs SOC, week 4, printed as 'minus 2.8'). Moreover, the “patients achieving RVR4 (undetectable HCV RNA at four weeks of treatment)” value in data set [5] (Triple 1500 group (N=31)) was 23 out of the 31. Also, the “patients achieving sustained virological response (SVR) at 24 weeks post treatment completion” value in data set [5] (Triple 1500 group, of the thirteen patients undetectable at two weeks) was “Eleven”. Moreover, the “antiviral effect, non-overlapping 95% confidence intervals” value in data set [5] (Triple 1500 over Dual 1500 and SOC) is on record as “superior antiviral effect”. For the same molecule, the “decrease in the mean HCV RNA (IU/mL) from baseline at week 4” value in data set [5] (all RO4588161 containing groups (Dual 1500, Dual 3000, Triple 1500), 4 weeks treatment, treatment-naive HCV genotype-1 patients) is on record as at least 3.6 log10. Also, the “earliest assessment at which declines in HCV RNA were observed, following the first dose” value in data set [5] (first assessment) worked out at 72 h. In addition, in data set [5] (treatment with RO4588161, Pegasys and ribavirin), the “plasma viral load following treatment” value was “Dose- and time-dependent decreases”.
